Like-named read-outs stand apart in the source and are kept apart here.

A word on the inhibition: it is the change of the read-out against control, counted positive when it falls.

For the experiment, the target named is T1, IL33 and ST2 binding (Homo sapiens, UniProt O95760).
T1 sequence (O95760 112-270 limits assumed): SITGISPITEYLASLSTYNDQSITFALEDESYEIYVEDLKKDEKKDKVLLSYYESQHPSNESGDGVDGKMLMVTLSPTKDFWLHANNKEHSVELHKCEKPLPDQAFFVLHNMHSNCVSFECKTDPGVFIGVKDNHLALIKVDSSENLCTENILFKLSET
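Further: plate ELISA with coated Flag-tagged human IL-33 and His-tagged human ST2, bound ST2 detected by anti-His HRP and TMB absorbance at 450 nm, 2 h compound incubation.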

For `CN1CCN(CCNC(=O)c2nc(-c3ccc(C#N)cc3)oc2-c2ccccc2[N+](=O)[O-])CC1` [Compound 252, 2-(4-Cyanophenyl)-N-(2-(4-methylpiperazin-1-yl)ethyl)-5-(2-nitrophenyl)oxazole-4-carboxamide], the inhibition was 28% (30 µM) and 19% (100 µM).
On to `CN(C)CCNC(=O)c1nc(-c2ccc(-c3ccccc3)cc2)oc1-c1ccccc1` [Compound 253, 2-([1,1′-Biphenyl]-4-yl)-N-(2-(dimethylamino)ethyl)-5-phenyloxazole-4-carboxamide], for which the inhibition is, setting by setting: (30 µM) 11%; (100 µM) 60%.
For `CN1CCN(CCNC(=O)c2nc(-c3ccc(-c4ccccc4)cc3)oc2-c2ccccc2)CC1` [Compound 254, 2-([1,1′-Biphenyl]-4-yl)-N-(2-(4-methylpiperazin-1-yl)ethyl)-5-phenyloxazole-4-carboxamide] the same measures were -20% and 11%.
As for `CN(C)CCNC(=O)c1nc(-c2ccc(-c3ccccc3)cc2)oc1-c1ccccc1[N+](=O)[O-]` [Compound 255, 2-([1,1′-Biphenyl]-4-yl)-N-(2-(dimethylamino)ethyl)-5-(2-nitrophenyl)oxazole-4-carboxamide], the inhibition reads like this: (30 µM) -10%; (100 µM) 1%.
Consider `CN1CCN(CCNC(=O)c2nc(-c3ccc(-c4ccccc4)cc3)oc2-c2ccccc2[N+](=O)[O-])CC1` [Compound 256, 2-([1,1′-Biphenyl]-4-yl)-N-(2-(4-methylpiperazin-1-yl)ethyl)-5-(2-nitrophenyl)oxazole-4-carboxamide], for which the inhibition came out at 3% (30 µM) and 49% (100 µM).
Regarding `CN(C)CCNC(=O)c1nc(-c2ccc3ccccc3c2)oc1-c1ccccc1` [Compound 257, N-(2-(Dimethylamino)ethyl)-2-(naphthalen-2-yl)-5-phenyloxazole-4-carboxamide], the inhibition runs as follows: (30 µM) 6%; (100 µM) 1%.
For `CN1CCN(CCNC(=O)c2nc(-c3ccc4ccccc4c3)oc2-c2ccccc2)CC1` [Compound 258, N-(2-(4-Methylpiperazin-1-yl)ethyl)-2-(naphthalen-2-yl)-5-phenyloxazole-4-carboxamide] the same measures were 35% and 49%.
Regarding `CN(C)CCNC(=O)c1nc(-c2ccc3ccccc3c2)oc1-c1ccccc1[N+](=O)[O-]` [Compound 259, N-(2-(Dimethylamino)ethyl)-2-(naphthalen-2-yl)-5-(2-nitrophenyl)oxazole-4-carboxamide], the inhibition worked out at 6% (30 µM) and 1% (100 µM).
Regarding `CN1CCN(CCNC(=O)c2nc(-c3ccc4ccccc4c3)oc2-c2ccccc2[N+](=O)[O-])CC1` [Compound 260, N-(2-(4-Methylpiperazin-1-yl)ethyl)-2-(naphthalen-2-yl)-5-(2-nitrophenyl)oxazole-4-carboxamide], the inhibition was 9% (30 µM) and 23% (100 µM).
For `CN(C)CCNC(=O)c1nc(-c2ccc(N(C)C)cc2)oc1-c1ccccc1` [Compound 261, N-(2-(Dimethylamino)ethyl)-2-(4-(dimethylamino)phenyl)-5-phenyloxazole-4-carboxamide], the inhibition reads like this: (30 µM) 3%; (100 µM) 8%.
Consider `CN1CCN(CCNC(=O)c2nc(-c3ccc(N(C)C)cc3)oc2-c2ccccc2)CC1` [Compound 262, 2-(4-(Dimethylamino)phenyl)-N-(2-(4-methylpiperazin-1-yl)ethyl)-5-phenyloxazole-4-carboxamide], for which the inhibition is, setting by setting: (30 µM) 14%; (100 µM) 33%.
On to `CN(C)CCNC(=O)c1nc(-c2ccc(N(C)C)cc2)oc1-c1ccccc1[N+](=O)[O-]` [Compound 263, N-(2-(Dimethylamino)ethyl)-2-(4-(dimethylamino)phenyl)-5-(2-nitrophenyl)oxazole-4-carboxamide], for which the inhibition is -35% (30 µM) and -10% (100 µM).
Regarding `CN1CCN(CCNC(=O)c2nc(-c3ccc(N(C)C)cc3)oc2-c2ccccc2[N+](=O)[O-])CC1` [Compound 264, 2-(4-(Dimethylamino)phenyl)-N-(2-(4-methylpiperazin-1-yl)ethyl)-5-(2-nitrophenyl)oxazole-4-carboxamide], the inhibition is, setting by setting: (30 µM) 29%; (100 µM) 35%.
Regarding `CN(C)CCNC(=O)c1nc(-c2ccc(C(C)(C)C)cc2)oc1-c1ccccc1` [Compound 265, 2-(4-(tert-Butyl)phenyl)-N-(2-(dimethylamino)ethyl)-5-phenyloxazole-4-carboxamide], the inhibition was determined as 5% (30 µM) and 14% (100 µM).
The corresponding values for `CN1CCN(CCNC(=O)c2nc(-c3ccc(C(C)(C)C)cc3)oc2-c2ccccc2)CC1` [Compound 266, 2-(4-(tert-butyl)phenyl)-N-(2-(4-methylpiperazin-1-yl)ethyl)-5-phenyloxazole-4-carboxamide] are -29% and 10%.
The corresponding values for `CCN(CC)CCNC(=O)c1nc(-c2ccc(C(C)(C)C)cc2)oc1-c1ccccc1` [Compound 267, 2-(4-(tert-butyl)phenyl)-N-(2-(diethylamino)ethyl)-5-phenyloxazole-4-carboxamide] are 23% and 29%.
Take `CN(C)CCNC(=O)c1nc(-c2ccc(C(C)(C)C)cc2)oc1-c1ccccc1[N+](=O)[O-]` [Compound 268, 2-(4-(tert-Butyl)phenyl)-N-(2-(dimethylamino)ethyl)-5-(2-nitrophenyl)oxazole-4-carboxamide]: the inhibition is -15% (30 µM) and -6% (100 µM).
For `CN1CCN(CCNC(=O)c2nc(-c3ccc(C(C)(C)C)cc3)oc2-c2ccccc2[N+](=O)[O-])CC1` [Compound 269, 2-(4-(tert-Butyl)phenyl)-N-(2-(4-methylpiperazin-1-yl)ethyl)-5-(2-nitrophenyl)oxazole-4-carboxamide], the inhibition (30 µM) was 33% and the inhibition (100 µM) stood at 44%.
The corresponding values for `CCN(CC)CCNC(=O)c1nc(-c2ccc(C(C)(C)C)cc2)oc1-c1ccccc1[N+](=O)[O-]` [Compound 270, 2-(4-(tert-Butyl)phenyl)-N-(2-(diethylamino)ethyl)-5-(2-nitrophenyl)oxazole-4-carboxamide] are 20% and 37%.
Take `CSc1ccc(-c2nc(C(=O)NCCN(C)C)c(-c3ccccc3[N+](=O)[O-])o2)cc1` [Compound 273, N-(2-(Dimethylamino)ethyl)-2-(4-(methylthio)phenyl)-5-(2-nitrophenyl)oxazole-4-carboxamide]: the inhibition (30 µM) is -25% and the inhibition (100 µM) was -18%.
As to `CSc1ccc(-c2nc(C(=O)NCCN3CCN(C)CC3)c(-c3ccccc3[N+](=O)[O-])o2)cc1` [Compound 274, N-(2-(4-Methylpiperazin-1-yl)ethyl)-2-(4-(methylthio)phenyl)-5-(2-nitrophenyl)oxazole-4-carboxamide], the inhibition reads like this: (30 µM) 18%; (100 µM) 20%.
The corresponding values for `CN(C)CCNC(=O)c1nc(-c2ccc([N+](=O)[O-])cc2)oc1-c1ccccc1` [Compound 275, N-(2-(Dimethylamino)ethyl)-2-(4-nitrophenyl)-5-phenyloxazole-4-carboxamide] are -16% and -28%.

The values above are taken from patent US20240287052A1, “NOVEL OXAZOLE DERIVATIVE AND PHARMACEUTICAL COMPOSITION FOR PREVENTING OR TREATING ALLERGIC DISEASES COMPRISING THE SAME” (AZCURIS CO., LTD., priority 2021, published 2024).
